Strand notation (5' to 3'): a small letter for the sugar, then the base; units joined by * are phosphorothioate-linked, units joined directly phosphodiester-linked; [ ] holds rarer units or linkages, { } end groups; capitals alone tell only the bases. e = 2'-O-(2-methoxyethyl) (MOE); k = constrained ethyl (cEt); [5mC] = 5-methylcytosine; d = 2'-deoxy (DNA)
Tested on: Yap1 mRNA
Test: Dose-dependent inhibition of human Yap1 in SNU-449 cells (Example 9, RTS36584)
Assay type: cell-based
Conditions: free uptake; for % UTC (Yap1 mRNA): approximately 48 hours; for IC50: linear regression on a log/linear plot
In short: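 SNU-449 cells (10,000/well) took up modified oligonucleotides by free uptake at a range of doses for about 48 h. Yap1 mRNA was quantified with primer-probe set RTS36584, normalised to RIBOGREEN total RNA and expressed as % untreated control; IC50 from linear regression on log/linear plot.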

Substance | % UTC (Yap1 mRNA) (31.3 nM) [% UTC] | % UTC (Yap1 mRNA) (125.0 nM) [% UTC] | % UTC (Yap1 mRNA) (500.0 nM) [% UTC] | % UTC (Yap1 mRNA) (2000.00 nM) [% UTC] | IC50 [µM]
1198642 (kT*kA*dT*dT*dA*dG*dA*dG*dT*dA*dT*dG*kT*eG*kG*e[5mC]; antisense) [compound 1198642] | 79 | 48 | 15 | 4 | 0.1
1198804 (kT*kG*dT*d[5mC]*dT*d[5mC]*dA*dT*dG*d[5mC]*d[5mC]*kT*eT*kA*eT*kA; antisense) [compound 1198804] | 71 | 48 | 19 | 5 | 0.1
1198935 (kG*kA*dT*dT*dT*dA*dG*dG*dA*dT*dG*k[5mC]*dA*kT*dG*kG; antisense) [compound 1198935] | 50 | 46 | 23 | 11 | 0.04
1198500 (kA*kT*dT*dT*dA*dG*dG*dA*dT*dG*d[5mC]*eA*kT*eG*kG*eT; antisense) [compound 1198500] | 72 | 51 | 34 | 15 | 0.2
1198555 (kA*kT*kT*dA*dG*dA*dG*dT*dA*dT*dG*dT*kG*kG*k[5mC]*eA; antisense) [compound 1198555] | 73 | 40 | 19 | 9 | 0.1
1198815 (kT*kA*dG*dA*dG*dT*dA*dT*dG*dT*dG*kG*e[5mC]*kA*eA*kT; antisense) [compound 1198815] | 84 | 64 | 34 | 15 | 0.2
1198353 (kA*kG*kT*dG*dT*dA*dT*dG*dT*d[5mC]*dA*dG*kA*eA*kG*eA; antisense) [compound 1198353] | 60 | 30 | 10 | 4 | 0.04
1198664 (kG*k[5mC]*dT*dT*dT*dG*dG*dA*dA*dG*dA*dT*k[5mC]*eT*kG*eA; antisense) [compound 1198664] | 52 | 33 | 14 | 5 | < 0.03
1198696 (kT*kG*dT*dA*dT*dG*dT*d[5mC]*dA*dG*dA*dA*kG*eA*kG*eT) [compound 1198696] | 58 | 31 | 11 | 2 | 0.04
1198529 (kT*kT*dA*dA*dA*dG*dT*dG*dT*dA*dT*eG*kT*e[5mC]*kA*eG; antisense) [compound 1198529] | 86 | 69 | 37 | 16 | 0.3
1198550 (kA*kT*kA*dT*dG*dG*dA*dA*dA*dT*dT*dG*kT*k[5mC]*kT*e[5mC]) [compound 1198550] | 73 | 56 | 30 | 13 | 0.2
1198285 (kA*kT*kT*dG*dT*d[5mC]*dT*d[5mC]*dA*dT*dG*d[5mC]*k[5mC]*eT*kT*eA; antisense) [compound 1198285] | 67 | 41 | 16 | 5 | 0.1
1198719 (kG*eG*kA*dA*dA*dT*dT*dG*dT*d[5mC]*dT*d[5mC]*eA*eT*kG*k[5mC]; antisense) [compound 1198719] | 67 | 30 | 9 | 3 | 0.1
